The subject of assay [1] is P388. The assay is described as follows: Activity against P388 lymphocytic leukemia in BDFR-1 mice measured as median survival time (MST) after intraperitoneal administration of 2.5 mg/kg. In kind it is functional, Mus musculus.
Assay [2] deals with P388. Kind of assay: Activity against P388 lymphocytic leukemia in BDFR-1 mice measured as percent increase in lifespan (% ILS) relative to controls after intraperitoneal administration of 10 mg/kg. In kind it is functional. The settings on record: Mus musculus, P388, ip.
In assay [3] the test system is P388. The assay is described as follows: Activity against P388 lymphocytic leukemia in BDFR-1 mice measured as percent increase in lifespan (% ILS) relative to controls after intraperitoneal administration of 5 mg/kg. In kind it is functional. To be noted: Mus musculus, P388, ip.
The subject of assay [4] is HeLa. Kind of assay: Effect on [3H]thymidine incorporation by HeLa cells measured as percent incorporation compared to control in the presence of drug at a concentration of 5 ug/mL. In kind it is functional, Homo sapiens. A general note: Uptake of a labelled nucleoside into DNA is a usual measure of proliferation.
In assay [5] the test system is P388. Kind of assay: Activity against P388 lymphocytic leukemia in BDFR-1 mice measured as median survival time (MST) after intraperitoneal administration of 80 mg/kg. The assay is classed as functional, Mus musculus.
Assay [6] deals with P388. Kind of assay: Activity against P388 lymphocytic leukemia in BDFR-1 mice measured as median survival time (MST) after intraperitoneal administration of 10 mg/kg. The assay is classed as functional, Mus musculus.
Assay [7] concerns HeLa. The assay is described as follows: Effect on [3H]-Thymidine incorporation by HeLa cells measured as percent incorporation compared to control 3 hr after washing at a concentration of 5 ug/mL. The assay is classed as functional, Homo sapiens.
Assay [8] relates to P388. The assay is described as follows: Activity against P388 lymphocytic leukemia in BDFR-1 mice measured as median survival time (MST) after intraperitoneal administration of 40 mg/kg. In kind it is functional, Mus musculus.
Assay [9] deals with P388. Kind of assay: Activity against P388 lymphocytic leukemia in BDFR-1 mice measured as percent increase in lifespan (% ILS) relative to controls after intraperitoneal administration of 2.5 mg/kg. The assay is classed as functional. The settings on record: Mus musculus, P388, ip.
Assay [10] relates to P388. The assay is described as follows: Activity against P388 lymphocytic leukemia in BDFR-1 mice measured as median survival time (MST) after intraperitoneal administration of 20 mg/kg. In kind it is functional, Mus musculus.
Assay [11] has as its system P388. The assay is described as follows: Activity against P388 lymphocytic leukemia in BDFR-1 mice measured as percent increase in lifespan (% ILS) relative to controls after intraperitoneal administration of 20 mg/kg. The assay is classed as functional. To be noted: Mus musculus, P388, ip.
Assay [12] deals with HeLa. Kind of assay: Effect on [3H]thymidine incorporation by HeLa cells measured as percent incorporation compared to control 3 h after washing at a concentration of 25 ug/mL. The assay is classed as functional, Homo sapiens.
The test system of assay [13] is HeLa. The assay is described as follows: Effect on [3H]thymidine incorporation by HeLa cells measured as percent incorporation compared to control in the presence of drug at a concentration of 25 ug/mL. In kind it is functional, Homo sapiens.
Assay [14] concerns P388. The assay is described as follows: Activity against P388 lymphocytic leukemia in BDFR-1 mice measured as percent increase in lifespan (% ILS) relative to controls after intraperitoneal administration of 80 mg/kg; Toxic. In kind it is functional, organism-based. More on the design: dose 80 mg/kg. The settings on record: Mus musculus, at 80 mg/kg.
The subject of assay [15] is P388. The assay is described as follows: Activity against P388 lymphocytic leukemia in BDFR-1 mice measured as percent increase in lifespan (% ILS) relative to controls after intraperitoneal administration of 40 mg/kg. The settings on record: Mus musculus, P388, ip. In kind it is functional.
Assay [16] relates to P388. The assay is described as follows: Activity against P388 lymphocytic leukemia in BDFR-1 mice measured as median survival time (MST) after intraperitoneal administration of 5 mg/kg. In kind it is functional, Mus musculus.
The subject of assay [17] is HeLa. Kind of assay: Effect on [3H]-Thymidine incorporation by HeLa cells measured as percent incorporation compared to control in the presence of drug at a concentration of 5 ug/mL. The assay is classed as functional, Homo sapiens.
Assay [18] relates to HeLa. The assay is described as follows: Effect on [3H]-Thymidine incorporation by HeLa cells measured as percent incorporation compared to control in the presence of drug at a concentration of 10 ug/mL. The assay is classed as functional, Homo sapiens.
For assay [19], the system named is HeLa. The assay is described as follows: Effect on [3H]thymidine incorporation by HeLa cells measured as percent incorporation compared to control 3 h after washing at a concentration of 5 ug/mL. The assay is classed as functional, Homo sapiens.
Assay [20] has as its system HeLa. Kind of assay: Effect on [3H]-Thymidine incorporation by HeLa cells measured as percent incorporation compared to control 3 hr after washing at a concentration of 10 ug/mL. In kind it is functional, Homo sapiens.
Assay [21] relates to HeLa. Kind of assay: Effect on [3H]-Thymidine incorporation by HeLa cells measured as percent incorporation compared to control 3 hr after washing at a concentration of 25 ug/mL. In kind it is functional, Homo sapiens.
The subject of assay [22] is P388. Kind of assay: Activity against P388 lymphocytic leukemia in BDFR-1 mice measured as percent increase in lifespan (% ILS) relative to controls after intraperitoneal administration of 80 mg/kg. The assay is classed as functional. The settings on record: Mus musculus, P388, ip.

Turning to `CNC(=O)OCc1c2ccncc2c(C)c2c1[nH]c1ccccc12`, the MST in [1] worked out at 18; in assay [5], 6; in assay [6], 21; in [8], 10; in assay [10], 15; in assay [16], 16. For the same molecule, in assay [2], the ILS (as a rule, how much longer treated animals lived than controls) at 10 mg/kg was found to be 110%. This molecule also had an ILS at 5 mg/kg in [3] of 60%. The Incorporation was 59% in [4], 18% in assay [7], 3% in assay [12] and 27% in [13]. Besides, the ILS at 2.5 mg/kg in assay [9] is 80%. The molecule further returned an ILS at 20 mg/kg in assay [11] of 50%. Moreover, the ILS result in assay [14] was “Toxic”. The ILS at 40 mg/kg in assay [15] amounted to 0%.
Molecule `Cc1c2ccncc2c(C)c2c1[nH]c1ccccc12` [ELLIPTECINE] registered an ILS at 10 mg/kg in assay [2] of 30%. In addition, the Incorporation in assay [17] came out at 65%; in assay [18], 56%; in assay [19], 78%; in assay [13] it was 8%; in assay [20], 47%; in assay [21], 25%. Also, in assay [3], the ILS at 5 mg/kg was 20%. Further, the MST in assay [6] turned out to be 13; in [8] it was 16; in assay [10], 13; in [16], 12. This molecule also returned an ILS at 20 mg/kg in [11] of 30%. This molecule gave an ILS at 40 mg/kg in assay [15] of 60%.
Regarding `Cc1c2cnccc2c(CO)c2[nH]c3ccccc3c12`, in assay [2], the ILS at 10 mg/kg was 45%. In assay [3], this molecule gave an ILS at 5 mg/kg of 30%. Also, the Incorporation in assay [4] stood at 67%; in assay [7] it was 88%; in [12], 52%; in assay [13], 22%. For the same molecule, the MST in assay [5] was found to be 18; in [6], 14.5; in assay [8], 16.5; in [10], 16.5; in [16] it was 13. In addition, the ILS at 20 mg/kg in [11] came out at 65%. The molecule also returned an ILS at 40 mg/kg in [15] of 65%. In assay [22], this molecule showed an ILS at 80 mg/kg of 80%.
